The subject of one data set is EGFR. As to the kind of experiment: EGFR degradation immunoblot in NSCLC line H1650 (FIG. 3). As to conditions: H1650 cells, 24 h. The format is cell-based, human. The method, then:
Specifically, the NSCLC line H1650, which is driven by a constitutively-activated EGFR, was treated with the indicated concentrations of the PAN-DUB inhibitor SJB-019A and/or the kinase inhibitor Gefitinib. After 24 hours, cells were lysed and the total cellular proteins were electrophoresed by standard PAGE methods. Proteins were immunoblotted and probed with commercially available polyclonal antisera to EGFR or Tubulin. […] Specifically, the NSCLC line H1650, which is driven by a constitutively-activated EGFR, was treated with the indicated concentrations of the PAN-DUB inhibitor SJB-019A and/or the kinase inhibitor Gefitinib. After 24 hours, cells were lysed and the total cellular proteins were electrophoresed by standard PAGE methods. Proteins were immunoblotted and probed with commercially available polyclonal antisera to EGFR or Tubulin. Conclusion: the PAN-DUB inhibitor promotes the degradation of the EGFR, at least in part, by inhibition of USP8 which is expressed in these cells. The dose of the inhibitor that reduce the viability of the NSCLC (less than 0.5 μm, see FIG. 2) correlates with the amount of drug required to degrade EGFR (between 0.2-0.5 μm).
(Immunoblotting shows a protein as a band on a membrane.)

A short description of data set [1]: Pharmacokinetics of 019A in mice (FIG. 1). It is filed as in vivo. The settings on record: IV, IP, or oral (PO) administration.
The next data set deals with AR. Description: AR degradation immunoblot in prostate cancer cell line (FIG. 9). It is filed as cell-based, human. As to conditions: 24 h. The method, then: (§1) Specifically, a human prostate cancer cell line was exposed to the indicated concentrations of PAN-DUB inhibitor, 019A, for 24 hours. Thereafter, cells were lysed, and total cellular proteins were electrophoresed and immunoblotted. Proteins were probed with anti-USP12, anti-AR, and anti-Tubulin antibodies. […] Specifically, a human prostate cancer cell line was exposed to the indicated concentrations of PAN-DUB inhibitor, 019A, for 24 hours. Thereafter, cells were lysed, and total cellular proteins were electrophoresed and immunoblotted. Proteins were probed with anti-USP12, anti-AR, and anti-Tubulin antibodies. Conclusion: the PAN-DUB inhibitor promotes the dose-dependent degradation of AR, consistent with the dose-dependent killing of the cells by the drug. The dose of the inhibitor that reduce the viability of the prostate cancer cells (about 0.5 to 0.8 μm, see FIG. 5 and FIG. 7) correlates with the amount of drug required to degrade AR (about 0.6 to 0.8 μm).

Another data set addresses T1, USP2a (Homo sapiens, UniProt O75604).
T1 construct: endogenous in cells
T1 sequence (O75604 1-605): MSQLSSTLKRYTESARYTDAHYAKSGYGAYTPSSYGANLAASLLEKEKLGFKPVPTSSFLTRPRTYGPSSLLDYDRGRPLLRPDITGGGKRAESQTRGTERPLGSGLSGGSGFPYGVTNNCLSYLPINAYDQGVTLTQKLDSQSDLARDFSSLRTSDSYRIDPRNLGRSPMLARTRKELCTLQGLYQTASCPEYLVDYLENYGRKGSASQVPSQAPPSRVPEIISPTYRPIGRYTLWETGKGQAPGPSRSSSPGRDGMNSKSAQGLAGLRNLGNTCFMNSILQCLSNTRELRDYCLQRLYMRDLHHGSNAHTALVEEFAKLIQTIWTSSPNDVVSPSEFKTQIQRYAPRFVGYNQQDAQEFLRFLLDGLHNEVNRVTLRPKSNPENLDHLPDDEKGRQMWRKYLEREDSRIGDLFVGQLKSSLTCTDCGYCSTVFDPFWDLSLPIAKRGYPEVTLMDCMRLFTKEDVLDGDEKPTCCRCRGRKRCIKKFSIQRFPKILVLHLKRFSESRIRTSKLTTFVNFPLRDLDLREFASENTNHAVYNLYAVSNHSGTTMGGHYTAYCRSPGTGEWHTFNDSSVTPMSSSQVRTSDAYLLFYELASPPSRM
As to the kind of experiment: USP2a expression immunoblot in prostate cancer cell line (FIG. 6, FIG. 8). The format is cell-based. The settings on record: 24 h. The method, then: (§2) Specifically, a human prostate cancer cell line was exposed to the indicated concentrations of PAN-DUB inhibitor, 019A, for 24 hours. Thereafter, cells were lysed, and total cellular proteins were electrophoresed and immunoblotted. Proteins were probed with anti-USP2, anti-Cyclin D1, and anti-vinculin. […] Specifically, a human prostate cancer cell line was exposed to the indicated concentrations of PAN-DUB inhibitor, 019A, for 24 hours. Thereafter, cells were lysed, and total cellular proteins were electrophoresed and immunoblotted. Proteins were probed with anti-USP2, anti-Cyclin D1, and anti-tubulin. […] Specifically, a human prostate cancer cell line was exposed to the indicated concentrations of PAN-DUB inhibitor, 019A, for 24 hours. Thereafter, cells were lysed, and total cellular proteins were electrophoresed and immunoblotted. Proteins were probed with anti-USP2, anti-Cyclin D1, and anti-Tubulin antibodies or anti-vinculin antibodies. Conclusion: the PAN-DUB inhibitor promotes the dose-dependent degradation of Cyclin D1, consistent with the dose-dependent killing of the cells by the drug. The dose of the inhibitor that reduce the viability of the prostate cancer cells (about 0.5 to 0.8 μm, see FIG. 5 and FIG. 7) correlates with the amount of drug required to degrade cyclin D1 (about 0.5 to 0.8 μm).

The subject of data set [2] is human prostate cancer cell line. Description: Prostate cancer cell viability after 24 h incubation (FIG. 5, FIG. 7). It is filed as cell-based. The method, then: A human prostate cancer cell line was incubated with the indicated concentration of DUB inhibitor for 24 hours, and viability was then measured. […] A human prostate cancer cell line was incubated with the indicated concentration of DUB inhibitor for 24 hours, and viability was then measured. […] A human prostate cancer cell line was incubated with the indicated concentration of DUB inhibitor for 24 hours, and viability was then measured.

The next data set concerns Cyclin D1. Description: Cyclin D1 degradation immunoblot in prostate cancer cell line (FIG. 6, FIG. 8). The settings on record: 24 h. The format is cell-based, human. The method, then:
as §2

The target of a further data set is T2, USP12 (Homo sapiens, UniProt O75317).
T2 construct: cells were lysed, and total cellular proteins were electrophoresed and immunoblotted; endogenous in cells
T2 sequence (O75317 whole entry): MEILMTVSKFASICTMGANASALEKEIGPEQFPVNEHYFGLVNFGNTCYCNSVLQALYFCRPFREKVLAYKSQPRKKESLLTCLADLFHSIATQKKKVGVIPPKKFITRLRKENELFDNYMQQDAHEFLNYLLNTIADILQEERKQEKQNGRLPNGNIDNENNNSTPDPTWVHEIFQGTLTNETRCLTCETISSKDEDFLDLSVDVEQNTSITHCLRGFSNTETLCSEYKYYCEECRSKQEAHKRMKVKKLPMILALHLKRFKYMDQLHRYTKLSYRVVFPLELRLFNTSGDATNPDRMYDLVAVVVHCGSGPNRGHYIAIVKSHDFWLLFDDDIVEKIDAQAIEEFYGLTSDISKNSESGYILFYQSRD
T2 sequence (Q8TAF3 whole entry partner): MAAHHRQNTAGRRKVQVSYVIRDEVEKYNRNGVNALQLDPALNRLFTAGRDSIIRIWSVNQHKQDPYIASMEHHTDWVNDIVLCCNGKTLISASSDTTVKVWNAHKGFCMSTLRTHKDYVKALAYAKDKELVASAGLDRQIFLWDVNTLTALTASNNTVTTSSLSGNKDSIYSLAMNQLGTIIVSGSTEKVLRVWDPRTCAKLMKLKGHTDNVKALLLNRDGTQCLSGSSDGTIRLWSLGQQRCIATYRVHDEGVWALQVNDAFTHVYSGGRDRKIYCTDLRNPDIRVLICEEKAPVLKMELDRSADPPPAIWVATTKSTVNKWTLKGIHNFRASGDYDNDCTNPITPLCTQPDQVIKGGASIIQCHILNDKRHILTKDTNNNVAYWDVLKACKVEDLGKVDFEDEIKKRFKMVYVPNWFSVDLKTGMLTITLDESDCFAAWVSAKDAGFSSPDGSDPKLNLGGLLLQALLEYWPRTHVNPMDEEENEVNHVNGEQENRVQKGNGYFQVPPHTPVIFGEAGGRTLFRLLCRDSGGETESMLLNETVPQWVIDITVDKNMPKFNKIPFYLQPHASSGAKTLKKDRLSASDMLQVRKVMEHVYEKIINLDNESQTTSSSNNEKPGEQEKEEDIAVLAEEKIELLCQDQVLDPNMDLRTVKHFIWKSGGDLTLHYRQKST
T2 sequence (Q8TBZ3 whole entry partner): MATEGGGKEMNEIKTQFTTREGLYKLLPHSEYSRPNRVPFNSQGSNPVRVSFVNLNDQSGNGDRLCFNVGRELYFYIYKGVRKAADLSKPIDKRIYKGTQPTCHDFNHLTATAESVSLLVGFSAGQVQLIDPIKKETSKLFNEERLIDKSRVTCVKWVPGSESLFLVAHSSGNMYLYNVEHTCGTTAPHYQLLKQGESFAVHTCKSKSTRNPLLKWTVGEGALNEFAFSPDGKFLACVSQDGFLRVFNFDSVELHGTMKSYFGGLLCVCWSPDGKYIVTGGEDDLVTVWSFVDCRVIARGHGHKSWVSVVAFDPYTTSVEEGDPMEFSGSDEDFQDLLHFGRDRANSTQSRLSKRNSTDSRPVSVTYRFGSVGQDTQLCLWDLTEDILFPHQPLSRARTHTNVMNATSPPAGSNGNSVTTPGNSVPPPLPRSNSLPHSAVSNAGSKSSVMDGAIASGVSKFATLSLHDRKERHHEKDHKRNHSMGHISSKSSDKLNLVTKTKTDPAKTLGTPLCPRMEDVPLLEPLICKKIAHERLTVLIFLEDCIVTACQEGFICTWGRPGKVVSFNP
As to the kind of experiment: USP12 protein immunoblot in prostate cancer cell line (FIG. 9). It is filed as cell-based. As to conditions: 24 h. The method, then: as §1

Data set [3] deals with human non-small cell lung cancer (NSCLC) lines. Description: NSCLC cell line viability after 24 h incubation (FIG. 2). It is filed as cell-based. The method, then: The indicated human non-small cell lung cancer (NSCLC) lines were incubated with the indicated concentrations of the DUB inhibitor (019A) for twenty-four hours, and cell viability was measured. […] The indicated human non-small cell lung cancer (NSCLC) lines were incubated with the indicated concentrations of the DUB inhibitor (019A) for twenty-four hours, and cell viability was measured. […] Specifically, the NSCLC line H1650, which is driven by a constitutively-activated EGFR, was treated with the indicated concentrations of the PAN-DUB inhibitor SJB-019A and/or the kinase inhibitor Gefitinib. After 24 hours, cells were lysed and the total cellular proteins were electrophoresed by standard PAGE methods. Proteins were immunoblotted and probed with commercially available polyclonal antisera to EGFR or Tubulin. Conclusion: the PAN-DUB inhibitor promotes the degradation of the EGFR, at least in part, by inhibition of USP8 which is expressed in these cells. The dose of the inhibitor that reduce the viability of the NSCLC (less than 0.5 μm, see FIG. 2) correlates with the amount of drug required to degrade EGFR (between 0.2-0.5 μm).

For another data set, the target named is T3, USP1 (Homo sapiens, UniProt O94782).
T3 construct: endogenous in cells; host or cells: K562 human leukemia cells (lysate)
T3 sequence (O94782 whole entry): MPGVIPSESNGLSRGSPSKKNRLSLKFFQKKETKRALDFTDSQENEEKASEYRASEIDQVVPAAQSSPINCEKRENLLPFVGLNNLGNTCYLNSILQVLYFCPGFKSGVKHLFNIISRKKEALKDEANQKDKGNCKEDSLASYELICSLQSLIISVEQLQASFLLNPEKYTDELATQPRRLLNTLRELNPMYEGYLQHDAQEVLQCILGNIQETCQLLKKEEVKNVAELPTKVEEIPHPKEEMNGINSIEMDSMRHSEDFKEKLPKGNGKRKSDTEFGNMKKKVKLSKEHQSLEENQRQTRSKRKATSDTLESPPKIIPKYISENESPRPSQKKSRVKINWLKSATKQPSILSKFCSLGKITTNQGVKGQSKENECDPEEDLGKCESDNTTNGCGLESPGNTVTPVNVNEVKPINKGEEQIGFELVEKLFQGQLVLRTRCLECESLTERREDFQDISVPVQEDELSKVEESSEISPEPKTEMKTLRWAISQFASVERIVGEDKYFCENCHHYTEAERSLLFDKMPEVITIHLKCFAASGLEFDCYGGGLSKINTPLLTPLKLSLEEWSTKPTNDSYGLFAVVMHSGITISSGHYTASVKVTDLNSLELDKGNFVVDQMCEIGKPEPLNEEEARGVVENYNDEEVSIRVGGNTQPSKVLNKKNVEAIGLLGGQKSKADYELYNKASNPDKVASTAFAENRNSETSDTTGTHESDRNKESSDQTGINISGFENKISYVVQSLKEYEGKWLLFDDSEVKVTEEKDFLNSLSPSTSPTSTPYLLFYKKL
T3 sequence (Q8TAF3 whole entry partner): as the sequence (Q8TAF3 whole entry partner) above
Description: Ub-VS labelling gel shift in K562 cell lysate, anti-USP1 western blot (FIG. 4). It is filed as biochemical. As to conditions: dose dependent. The method, then: (§3) Human leukemia cells (K652 cell line) express USP8, USP1, and other DUBs. In this experiment, K562 cells were lysed, and total cellular proteins were incubated with the affinity reagent, Ub-VS (vinyl sulfone) which covalently binds to active USPs. As indicated, the addition of Ub-VS causes an upward gel shift of active USP8 and active USP1 (lane 2). […] A western blot is shown, immunoblotted with either anti-USP8, anti-USP1, or anti-HA.
(§4) Human leukemia cells (K652 cell line) express USP8, USP1, and other DUBs. In this experiment, K562 cells were lysed, and total cellular proteins were incubated with the affinity reagent, Ub-VS (vinyl sulfone) which covalently binds to active USPs. As indicated, the addition of Ub-VS causes an upward gel shift of active USP8 and active USP1 (lane 2). […] A western blot is shown, immunoblotted with either anti-USP8, anti-USP1, or anti-HA antibodies.
In general terms: A gel shift assay detects complexes by their altered migration in electrophoresis.

The next data set has as its target T4, USP8 (Homo sapiens, UniProt P40818).
T4 construct: endogenous in cells; host or cells: K562 human leukemia cells (lysate)
T4 sequence (P40818 1-1118): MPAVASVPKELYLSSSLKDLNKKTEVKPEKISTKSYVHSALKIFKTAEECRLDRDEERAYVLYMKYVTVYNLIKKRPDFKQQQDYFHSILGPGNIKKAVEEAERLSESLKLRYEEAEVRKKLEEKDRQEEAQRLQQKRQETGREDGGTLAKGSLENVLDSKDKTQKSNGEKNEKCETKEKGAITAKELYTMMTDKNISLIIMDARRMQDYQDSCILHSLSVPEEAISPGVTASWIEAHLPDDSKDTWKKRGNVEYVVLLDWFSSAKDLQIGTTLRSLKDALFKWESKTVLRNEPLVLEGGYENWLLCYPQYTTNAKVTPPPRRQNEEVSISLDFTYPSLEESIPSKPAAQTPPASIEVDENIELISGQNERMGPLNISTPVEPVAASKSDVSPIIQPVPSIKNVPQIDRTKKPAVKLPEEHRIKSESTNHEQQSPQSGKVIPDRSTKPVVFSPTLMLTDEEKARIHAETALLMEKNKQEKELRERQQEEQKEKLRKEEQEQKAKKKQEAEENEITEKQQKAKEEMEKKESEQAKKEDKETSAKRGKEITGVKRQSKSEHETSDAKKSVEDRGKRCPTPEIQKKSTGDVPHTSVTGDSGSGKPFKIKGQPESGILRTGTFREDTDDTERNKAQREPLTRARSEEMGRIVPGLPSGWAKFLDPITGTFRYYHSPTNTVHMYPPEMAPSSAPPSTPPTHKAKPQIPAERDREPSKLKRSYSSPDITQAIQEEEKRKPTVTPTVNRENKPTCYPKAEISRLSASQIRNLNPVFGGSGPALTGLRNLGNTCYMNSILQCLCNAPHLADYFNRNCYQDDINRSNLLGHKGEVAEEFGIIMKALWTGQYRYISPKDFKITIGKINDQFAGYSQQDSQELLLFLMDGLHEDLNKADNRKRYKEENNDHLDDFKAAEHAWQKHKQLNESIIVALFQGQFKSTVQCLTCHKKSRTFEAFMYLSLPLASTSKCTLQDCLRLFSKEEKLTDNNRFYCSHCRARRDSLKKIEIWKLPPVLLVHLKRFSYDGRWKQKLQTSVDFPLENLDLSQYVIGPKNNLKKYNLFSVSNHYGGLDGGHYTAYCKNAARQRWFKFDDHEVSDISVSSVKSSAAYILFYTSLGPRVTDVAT
Description: Ub-VS labelling gel shift in K562 cell lysate, anti-USP8 western blot (FIG. 4). The format is biochemical. As to conditions: dose dependent. The method, then:
as §3, §4

The values below come from patent US10450281B1, “Compounds and methods for treating cancer” (Dana-Farber Cancer Institute, Inc., priority 2014, dated 2019).

For the compound `O=C1c2ccccc2C(=O)c2oc(-c3cccnc3)nc21` [019A], in the data set on EGFR, the “amount of drug required to degrade EGFR” value is given as 0.2-0.5 μm. In data set [1], the “serum concentrations after administration” value is “inhibitory serum concentrations of 019A can be achieved”. The “amount of drug required to degrade AR” value in the data set on AR lay in the range of 0.6 to 0.8 μm. In addition, the “effect on USP2a expression” value on USP2a is “does not affect USP2a expression”. Moreover, in [2], the “dose of the inhibitor that reduces the viability of the prostate cancer cells” value lay in the range of 0.5 to 0.8 μm and the “drug concentration range for killing of prostate cancer cells” value is recorded as “submicromolar range”. In the data set with Cyclin D1, the “amount of drug required to degrade cyclin D1” value fell in the range of 0.5 to 0.8 μm. The “effect on USP12 protein” value at USP12 is listed as “degrades USP12 protein”. In addition, in data set [3] (24 h incubation), the “dose of the inhibitor that reduces the viability of the NSCLC” value is on record as “less than 0.5 μm”. Also, the “selective killing (cytotoxicity) of lung cancer cell lines” value in data set [3] (cell lines which express activated EGF-receptor, 24 h) is on record as “selective killing (cytotoxicity) for lung cancer cell lines which express activated EGF-receptor”.

In the case of Ub-aldehyde, the “inhibition of Ub-VS binding to active USP1” value on USP1 is given as “blocks the upward shift”. For the same compound, the “inhibition of Ub-VS binding to active USP8” value on USP8 is “blocks the upward shift”.
